In publication doi:10.1101/2024.07.10.602890, “H105A peptide eye drops promote photoreceptor survival in murine and human models of retinal degeneration” (bioRxiv, 2024):
Each block holds one substance with its values, some of them ahead of it. Ends that are not written are not given here.

Legend:
[1] = tested on: rd10 and rd10/Serpinf1−/− mice; assay: Electroretinography (ERG) a-wave and b-wave after peptide eye drops; type: in vivo, mouse; details: rd10 mice; daily eye drops of AlexaFl488-labelled peptide P15-P20, ERG at P21; n = 3 per condition
Text: Fig. 5: Effect of daily eyedrops of PEDF peptides on ERG a-wave and b-wave retinal function (A and B) Representative ERG waveforms for rd10 (A) and rd10/Serpinf1^−/− (B) mice at P21 in response to a light flash (1 cd.s/m^2). Amplitude (y-axis) is plotted against time in milliseconds (ms, x-axis). Treatments are indicated to the right of each plot and are color coded, with control wild type C57Bl/6J mice without peptide treatment shown in blue. A-wave and b-wave are indicated by arrows. (C and D) Photoreceptor a-wave amplitudes. Averages of photoreceptor a-wave amplitudes for rd10 (C) and rd10/Serpinf1^−/− (D) mice as a function of light intensity (cd/s.m^2, x-axis). Responses of animals treated with 17-mer are shown in green, H105A in black, and vehicle (HBSS) in red. Wildtype responses are shown in blue. (E and F) Bipolar cell b-wave amplitudes. Averages of bipolar cell b-wave amplitudes for rd10 (E) and rd10/Serpinf1^−/− (F) mice as a function of light intensity (cd/s.m^2, x-axis), with treatments indicated as in panels (C) and (D). The number of mice evaluated for the data shown in Panels C-F were n = 8 for each rd10, rd10/Serpinf1^−/− and wild type. Each data point represents the average ± SD of each genotype, analyzed by unpaired t-test. Statistical significance between H105A and vehicle is indicated by ##p < 0.01, ###p < 0.001, ####p < 0.0001, and between H105A and 17-mer by **p < 0.01, ***p < 0.001, ****p < 0.0001.
Electroretinogram (ERG) for rd10 and rd10/Serpinf1^−/− mice were recorded in both eyes of each animal using an Espion E2 system with ColorDome (Diagnosys LLC) with a heated surface and mice were dark-adapted overnight as previously described ([29]). Mice were placed on the heated surface and electrodes were placed in the mouth and a subdermal platinum needle electrode was placed in the back of the mouse to serve as ground. Responses were elicited with increasing light impulses with intensity from 0.0001 to 10 cd-seconds per meter squared (cd.s/m^2). Amplitudes for a-wave were measured from stimulus to the trough of the a-wave and b-wave amplitudes were measured from a-wave to b-wave trough or peak. The values from the a and b waves for both eyes were exported to Microsoft Excel to obtained amplitude values for each mouse.
(§1) Figure S2. Effects of extending the timeline or administering eye drops of 17-mer[H105A] peptide every other day in rd10 mic e.
Eye drops of H105A peptide solution were administered to r d1 0 mice either daily (Fig. S2A) or every other day (Fi g. S 2D). A total of 5 µl of a solution containing H105A peptide at 1 mg/ml in HBSS were applied as eye drops. The vehicle HBSS was added as eye drops in the contralateral eyes. When eye […]
intensity light at P25 (Fig. S2C). When eye drops of H105A were added every other day, a rescue in the ONL thickness in r d10 mice compared to vehicle was also observed (Fi g. S 2E), with an improvement in a- […]
efficacy of peptide H105A eye drops either daily or every other day in an extended timeline to stabilize photoreceptor morphology and light response function loss in r d10 mice, however, these were less efficacious than daily H105A peptide eye drops. […]
(C) ERG of r d1 0 mice at P25 and treated as in Fi g. […] For ERG data shown, the number of mice evaluated were n =5 for rd10 and each data point corresponds to the average ± SD of each genotype by unpaired t-test. *p < 0.05, **p < 0.01, * ** p < 0 .001 , ****p < 0.0001. […]

[2] = tested on: rd10 and rd10/Serpinf1−/− mice; assay: In vivo photoreceptor cell death (PS externalization) by PSVue-550 fluorescence fundoscopy; set-up: species or system mouse
Description: Fig. 2: Effect of PEDF peptide eye drops on protection against photoreceptor cell death in rd10 and rd10/Serpinf1^−/− mice (A) Illustration of the experimental timeline of peptide application. Eye drops containing 5 μl of 17-mer, H105A, or R99A peptides in HBSS were administered daily to eyes of rd10 and rd10/Serpinf1^−/− mice from P15 to P20. Vehicle (HBSS) was applied in contralateral eyes. At P20, PSVue® was applied via eye drops, and fluorescence fundoscopy was conducted at P21 to assess photoreceptor cell death. RE and LE refer to the right and left eyes, respectively. (B) Fluorescence fundoscopy micrographs. Representative fluorescence fundoscopy images of retinas from mice treated as in Panel A with eyedrops of 1 mg/ml of each peptide. Quantification of fluorescence intensity was performed using ImageJ, with average intensity values corrected for background fluorescence from eyes that had not received PSVue or peptides. […] Statistical significance was determined by unpaired t-test (****p < 0.0001). […] Representative fluorescence fundoscopy micrographs showing retinas treated with varying concentrations of 17-mer and H105A peptides (0.0 mg/ml to 1.0 mg/ml) in rd10 and rd10/SerpinfT^−/− mice. Fluorescence intensity was quantified and analyzed using Sigmoidal interpolation in GraphPad. […]

[3] = tested on: rd10 and rd10/Serpinf1−/− mice; assay: Retinal histology (H&E), OS length and ONL thickness spider plots after peptide eye drops; type: in vivo, mouse; details: daily eye drops 1 mg/ml; rd10 and rd10/Serpinf1−/− mice; P21
Description: Fig. 4: Effect of eyedrops of 17-mer and H105A peptides on photoreceptor morphology of rd10 and rd10/Serpinf1−/− mice (A and B) Histological Evaluation. Representative microphotographs of retina sections from rd10 (A) and rd10/Serpinf1−/− (B) mice treated with 17-mer, H105A, or R99A peptides at 1 mg/ml, or with vehicle (HBSS), compared to wild type C57Bl/6J mice. Sections were stained with hematoxylin and eosin. Spider Plot illustrate the thickness of the outer nuclear layer (ONL) in rd10 (C) and rd10/Serpinf1−/− (D) mice. Five retinas per group were analyzed and each data point represents the average ± SEM per location relative to the optic nerve (ON), analyzed using One-way ANOVA. Statistics for comparisons between H105A and vehicle is indicated by #p < 0.05, #p < 0.05, ##p < 0.01, ###p < 0.001). Statistics for comparisons between H105A and 17-mer is indicated by *p < 0.05. Scale bar = 50 μm.
Both eyes were oriented before enucleation to allow sectioning along the dorsal/ventral axis. Enucleated eyes from rd10 and rd10 × Serpinf1^−/− mice were incised in the cornea and fixed in 2.5% glutaraldehyde for 20 min and then in 10% neutral buffered formalin at 4°C for at least 48 h, followed by paraffin embedding, sectioning, and staining with either H&E or immunofluorescence procedures, as previously described ([28]). For fluorescence microscopy, antibodies, and 0.1 μg/ml DAPI were used to immunostain and nuclei counterstain the sections, respectively. Antibodies used in the study are in Table S3. Images were acquired using a ZEIS 700 confocal microscope. Fluorescence intensity was quantified using ImageJ as previously described ([14], [26]).
To generate spider plots, the ONL thickness was measured from images acquired with light microscopy of the retina sections stained with H&E or images of retina sections stained with DAPI with a dorsal-ventral orientation. The ONL thickness in the entire retina sections was measured at 5 different positions from both sides of the optic nerve (ON) using ImageJ, as described before ([28]). Alternatively, for DAPI stained images, a customed macro implemented in ImageJ was used to select only the ONL.
as §1
Eye drops of H105A peptide solution were administered to r d1 0 mice either daily (Fig. S2A) or every other day (Fi g. S 2D). A total of 5 µl of a solution containing H105A peptide at 1 mg/ml in HBSS were applied as eye drops. The vehicle HBSS was added as eye drops in the contralateral eyes. […]
ONL thickness in r d10 mice compared to vehicle was also observed (Fi g. S 2E), with an improvement in a- […]
efficacy of peptide H105A eye drops either daily or every other day in an extended timeline to stabilize photoreceptor morphology and light response function loss in r d10 mice, however, these were less efficacious than daily H105A peptide eye drops.
(A) Scheme showing a timeline of peptide administration via daily eye drops of H105A peptide to r d10 mice between P15 and P2 4. […]
(B) Representative microphotographs of retinal cross sections of r d1 0 treated as in Fig. S2A and stained with hematoxylin and eosin are shown. […]
(D) Scheme showing a timeline of peptide administration via eye drops of H105A peptide to rd10 mice starting at P15 every other day until P23. Assays were at P25.
(E) Representative microphotographs of retinal cross sections of r d1 0 treated as in Fig. S2D and stained […]
average ± SD per location relative to the ON per genotype by unpaired t-test. *p < 0.05, […]
(F) ERG of r d1 0 mice at P25 and treated as in Fig. S2D were performed in response to a STR. […]

neuroprotective activity of labelled peptides as assessed by ERG [1]: exhibited neuroprotective activity
Substance: AlexaFl-QRTESIIHRALYYDLIS-COOH [AlexaFl-488-17-mer, 17-mer conjugated to Alexa Fluor 488 dye]

Substance: SLGAEQRTESIIHRALYYDLISSPDIHGT [29-mer]
photoreceptor cell death (PSVue 550 fluorescence fundoscopy) relative to vehicle ([2]; daily eye drops 5 μl of 1 mg/ml in HBSS from P15, P21, n = 3 retinas per genotype): no rescue in photoreceptor cell death

Substance: QATESIIHRALYYDLIS [R99A]
outer nuclear layer (ONL) thickness vs vehicle-treated or untreated eyes [3]: had no effect
photoreceptor outer segment (OS) length vs vehicle-treated or untreated eyes [3]: had no effect
PS externalization (PSVue-550 fundi fluorescence) vs vehicle (HBSS) eye drops ([2]; daily eye drops 5 μl of 1 mg/ml, P15 to P20, fundoscopy at P21, 5 eyes per condition): no significant efficacy

neuroprotective activity of labelled peptides as assessed by ERG [1]: exhibited neuroprotective activity
Substance: AlexaFl-QRTESIIARALYYDLIS-COOH [AlexaFl-488-H105A, H105A peptide conjugated to Alexa Fluor 488 dye]
